Details of this experiment: species or system broiler chickens (Vencobb 400). The conditions noted are these: in vivo.

We go through one substance from patent US20210228653A1, “BACILLUS LICHENIFORMIS STRAIN WITH PROBIOTIC ACTIVITY” (EVONIK DEGUSSA GMBH, priority 2016, published 2021).

Where “and” joins values, the source holds several entries; their conditions need not be identical. Equal entries are not always repeated.

For “Bacitracin Methylene Disalicyclate [BMD]”, the “FCR (feed conversion ratio, feed to gain)” value was 1.42 g/g and 1.74 g/g; the “FCR compared to the control (in words)” value is listed as “reduced”; the “body weight compared to the control (in words)” value is on record as “improved the body weight”.
